The source made the active and inactive calls. No cut-off for these calls is given here.
Experiments:
[1] = molecular target: T1, Cholinesterase (Homo sapiens, UniProt P06276)
Description: Inhibition of human BuChE using S-butyrylthiocholine iodide as substrate preincubated for 5 mins followed by substrate addition measured after 60 to 300 sec by Ellman's method

[2] = molecular target: Acetylcholinesterase (Homo sapiens, UniProt P22303); experiment: Inhibition of human AChE using acetylthiocholine iodide as substrate preincubated for 5 mins followed by substrate addition measured after 60 to 300 sec by Ellman's method
[3] = molecular target: Amyloid-beta precursor protein (Homo sapiens) (UniProt P05067); experiment: Inhibition of amyloid beta (1-42) self-induced aggregation (unknown origin) at 1 uM measured every 5 mins for 16 hrs by thioflavin T fluorescence method relative to control
Amyloid-beta precursor protein (Homo sapiens), sequence (P05067 whole entry): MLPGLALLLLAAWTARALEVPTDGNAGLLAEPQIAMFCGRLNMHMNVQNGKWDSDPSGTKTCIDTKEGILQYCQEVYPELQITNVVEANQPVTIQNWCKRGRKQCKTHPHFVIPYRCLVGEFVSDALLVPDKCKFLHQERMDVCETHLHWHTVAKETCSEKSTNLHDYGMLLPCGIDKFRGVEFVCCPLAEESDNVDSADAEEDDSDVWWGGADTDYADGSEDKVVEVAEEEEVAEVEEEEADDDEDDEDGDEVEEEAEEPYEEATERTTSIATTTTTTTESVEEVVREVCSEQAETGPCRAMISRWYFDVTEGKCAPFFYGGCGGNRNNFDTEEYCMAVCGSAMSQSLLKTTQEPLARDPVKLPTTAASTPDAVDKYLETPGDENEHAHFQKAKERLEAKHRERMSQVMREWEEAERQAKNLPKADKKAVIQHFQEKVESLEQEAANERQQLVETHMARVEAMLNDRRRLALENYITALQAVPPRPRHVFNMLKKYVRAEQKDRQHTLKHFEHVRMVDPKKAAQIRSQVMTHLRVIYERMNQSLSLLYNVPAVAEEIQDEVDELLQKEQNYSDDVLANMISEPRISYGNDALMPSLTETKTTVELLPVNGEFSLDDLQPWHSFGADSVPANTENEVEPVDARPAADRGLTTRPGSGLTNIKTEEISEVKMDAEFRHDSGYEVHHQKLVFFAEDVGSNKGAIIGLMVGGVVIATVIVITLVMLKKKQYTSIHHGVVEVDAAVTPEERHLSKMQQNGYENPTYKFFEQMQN

[4] = molecular target: Amyloid-beta precursor protein (Homo sapiens) (UniProt P05067); experiment: Inhibition of amyloid beta (1-42) self-induced aggregation (unknown origin) at 5 uM measured every 5 mins for 16 hrs by thioflavin T fluorescence method relative to control
[5] = molecular target: Amyloid-beta precursor protein (Homo sapiens) (UniProt P05067); experiment: Inhibition of amyloid beta (1-42) self-induced aggregation (unknown origin) at 25 uM measured every 5 mins for 16 hrs by thioflavin T fluorescence method relative to control
[6] = molecular target: Amyloid-beta precursor protein (Homo sapiens) (UniProt P05067); experiment: Inhibition of amyloid beta (1-42) self-induced aggregation (unknown origin) at 10 uM measured every 5 mins for 16 hrs by thioflavin T fluorescence method relative to control
[7] = Cytotoxicity against human SH-SY5Y cells assessed as cell viability at 50 uM after 24 hrs by MTT assay relative to untreated control; assay type: cell-based; details: read-out: Activity
[8] = Antioxidant activity assessed as DPPH free radical scavenging activity at 50 uM incubated for 60 mins in dark relative to control; assay type: physicochemical; details: 1 h
[9] = molecular target: Amyloid-beta precursor protein (Homo sapiens) (UniProt P05067); experiment: Inhibition of amyloid beta (1-42) self-induced aggregation (unknown origin) measured every 5 mins for 16 hrs by thioflavin T fluorescence method
[10] = molecular target: T1, Cholinesterase; experiment: Potency index, ratio of galantamine IC50 to compound IC50 for inhibition of human BuChE

T1 sequence (P06276 whole entry): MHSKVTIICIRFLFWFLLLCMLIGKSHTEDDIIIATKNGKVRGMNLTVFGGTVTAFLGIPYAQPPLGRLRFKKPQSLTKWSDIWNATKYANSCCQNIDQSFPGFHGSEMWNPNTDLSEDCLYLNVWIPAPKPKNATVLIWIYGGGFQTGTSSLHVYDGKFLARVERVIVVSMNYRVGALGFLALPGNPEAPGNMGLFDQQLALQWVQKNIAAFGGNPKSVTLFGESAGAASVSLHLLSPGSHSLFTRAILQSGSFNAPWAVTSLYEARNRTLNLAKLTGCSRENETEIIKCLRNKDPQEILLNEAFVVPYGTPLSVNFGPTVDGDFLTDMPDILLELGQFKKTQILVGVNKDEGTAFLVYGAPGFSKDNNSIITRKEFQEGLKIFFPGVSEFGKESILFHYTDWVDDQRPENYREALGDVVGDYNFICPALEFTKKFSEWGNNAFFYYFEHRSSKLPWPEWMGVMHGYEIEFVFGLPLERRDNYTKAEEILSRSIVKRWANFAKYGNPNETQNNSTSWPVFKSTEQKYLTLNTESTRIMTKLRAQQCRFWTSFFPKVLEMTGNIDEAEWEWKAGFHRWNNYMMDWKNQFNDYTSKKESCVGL
Acetylcholinesterase, sequence (P22303 whole entry): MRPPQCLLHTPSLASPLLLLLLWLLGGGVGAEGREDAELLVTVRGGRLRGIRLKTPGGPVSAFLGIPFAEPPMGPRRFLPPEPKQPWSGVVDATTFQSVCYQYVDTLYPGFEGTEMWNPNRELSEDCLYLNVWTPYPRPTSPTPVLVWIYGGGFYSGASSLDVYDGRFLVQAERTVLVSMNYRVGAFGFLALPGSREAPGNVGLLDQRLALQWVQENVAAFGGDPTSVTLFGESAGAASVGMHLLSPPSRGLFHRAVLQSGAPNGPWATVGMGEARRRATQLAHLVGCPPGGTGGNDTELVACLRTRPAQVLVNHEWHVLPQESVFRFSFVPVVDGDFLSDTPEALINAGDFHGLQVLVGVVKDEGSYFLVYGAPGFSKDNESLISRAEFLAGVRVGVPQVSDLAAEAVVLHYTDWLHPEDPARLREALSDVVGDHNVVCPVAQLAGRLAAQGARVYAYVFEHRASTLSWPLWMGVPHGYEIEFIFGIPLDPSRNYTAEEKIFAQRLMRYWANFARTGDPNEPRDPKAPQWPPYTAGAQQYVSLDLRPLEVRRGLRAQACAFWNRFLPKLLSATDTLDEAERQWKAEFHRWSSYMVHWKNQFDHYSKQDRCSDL

Row | SMILES | IC50 [1] [µM] | IC50 [2] [µM] | inhibition [3] | inhibition [4] | inhibition [5] | inhibition [6] | viability at 24 h, 50 µM [7] [%] | inhibition (INH) [8] [%] | inhibition [9] | Ratio IC50 [10]
1 | O=C(CCc1ccccc1)N1c2ccccc2[Se]c2ccccc21 | 38 | 6.7 |  |  |  |  |  |  |  | 
2 | O=S(=O)(O)c1cc(S(=O)(=O)O)c2c(/N=N/c3ccccc3)c(O)ccc2c1 |  |  | 8.6% | 20.4% | 57.2% | 31% |  |  |  | 
3 | COc1ccc(C(=O)N2c3ccccc3[Se]c3ccccc32)cc1 | 11.1 | 4.6 |  |  |  |  |  |  |  | 
4 | Clc1ccc2c(c1)Nc1ccccc1S2 | 19.2 | 7.4 | 10.3% | 22% | 60.8% | 33.7% | 63.3 | 76.4 |  | 
5 | COc1cccc(C(=O)N2c3ccccc3Sc3ccc(Cl)cc32)c1 | 30.8 | 4.6 |  |  |  |  |  |  |  | 
6 | O=C(c1ccccc1)N1c2ccccc2[Se]c2ccccc21 | 22.7 | 5.4 |  |  |  |  |  |  |  | 
7 | Cc1c(C)c2c(c(C)c1O)CCC(C)(C(=O)O)O2 (configuration not stated) [TROLOX] |  |  |  |  |  |  |  | 99.2 |  | 
8 | c1ccc2c(c1)Nc1ccccc1[Se]2 | 3 | 5.6 | 16.3% | 24.1% | 45.6% | 30.7% | 76 | 84.4 | Dose-dependent effect | 22
9 | O=C(CCc1ccccc1)N1c2ccccc2Sc2ccccc21 | 51 | 7.1 |  |  |  |  |  |  |  | 
10 | O=c1c2ccccc2[se]n1-c1ccccc1 [EBSELEN] | 4.6 | 6.2 |  |  |  |  | 53.9 | 34.7 |  | 
11 | c1ccc2c(c1)Nc1ccccc1S2 [PHENOTHIAZINE] | 5.8 | 7.3 | 18.3% | 37.2% | 62% | 59.1% | 63.3 | 92.1 | Dose-dependent effect | 11
12 | COc1ccc(C(=O)N2c3ccccc3Sc3ccc(Cl)cc32)cc1 | 5.3 | 5.9 |  |  |  |  |  |  |  | 
13 | COc1ccc(C(=O)N2c3ccccc3[Se]c3ccccc32)cc1OC | 9.1 | 5.1 | 6.3% | 5.7% | 11.1% | 8.7% | 76 | 39 |  | 
14 | COc1cccc(C(=O)N2c3ccccc3[Se]c3ccc(Cl)cc32)c1 | 19.3 | 5.9 |  |  |  |  |  |  |  | 
15 | O=C(Cc1ccccc1)N1c2ccccc2Sc2ccccc21 | 38.3 | 7.4 |  |  |  |  |  |  |  | 
16 | COc1ccc(C(=O)N2c3ccccc3Sc3ccccc32)cc1 | 53 | 6.3 |  |  |  |  |  |  |  | 

Row | SMILES | IC50 [1] [µM] | IC50 [2] [µM] | inhibition [3] | inhibition [4] | inhibition [5] | inhibition [6] | viability at 24 h, 50 µM [7] [%] | inhibition (INH) [8] [%] | inhibition [9] | Ratio IC50 [10]
17 | COc1ccc(C(=O)N2c3ccccc3Sc3ccccc32)cc1OC | 45 | 5.8 | inactive | inactive | inactive | inactive | 63.3 | 44.3 |  | 
18 | O=C(c1ccccc1)N1c2ccccc2Sc2ccccc21 | > 100 | 8 |  |  |  |  |  |  |  | 
19 | COc1ccc(C(=O)N2c3ccccc3[Se]c3ccc(Cl)cc32)cc1OC | 5.7 | 6.2 | 8.4% | 7.9% | 5.9% | 9.1% | 76 | 38.3 |  | 
20 | COc1ccc(C(=O)N2c3ccccc3Sc3ccc(Cl)cc32)cc1OC | 32.6 | 6.4 | 6.2% | 4.5% | 5.9% | 6.5% | 63.3 | 46.5 |  | 
21 | O=C(CCc1ccccc1)N1c2ccccc2Sc2ccc(Cl)cc21 | 5 | 7.9 |  |  |  |  |  |  |  | 
22 | COc1ccc(C(=O)N2c3ccccc3[Se]c3ccc(Cl)cc32)cc1 | 4.9 | 5.8 |  |  |  |  |  |  |  | 
23 | O=C(CCc1ccccc1)N1c2ccccc2[Se]c2ccc(Cl)cc21 | 40 | 6.3 |  |  |  |  |  |  |  | 
24 | O=C(c1ccccc1)N1c2ccccc2[Se]c2ccc(Cl)cc21 | 3.8 | 6 |  |  |  |  |  |  |  | 
25 | O=C(Cc1ccccc1)N1c2ccccc2[Se]c2ccccc21 | 11 | 6.4 |  |  |  |  |  |  |  | 
26 | COc1cccc(C(=O)N2c3ccccc3Sc3ccccc32)c1 | 25.5 | 6.2 |  |  |  |  |  |  |  | 
27 | COc1cccc(C(=O)N2c3ccccc3[Se]c3ccccc32)c1 | 9.6 | 6.2 |  |  |  |  |  |  |  | 
28 | O=C(c1ccccc1)N1c2ccccc2Sc2ccc(Cl)cc21 | 9.3 | 9.9 |  |  |  |  |  |  |  | 
29 | O=C(Cc1ccccc1)N1c2ccccc2[Se]c2ccc(Cl)cc21 | 5 | 6.5 |  |  |  |  |  |  |  | 
30 | Clc1ccc2c(c1)Nc1ccccc1[Se]2 | 4.7 | 6.3 | 14.5% | 18.5% | 45% | 25.1% | 43 | 73.2 |  | 
31 | O=C(Cc1ccccc1)N1c2ccccc2Sc2ccc(Cl)cc21 | 3.6 | 7.5 |  |  |  |  |  |  |  | 
